Among the data in ChEMBL document CHEMBL1143071, “Sodium pancratistatin 3,4-o-cyclic phosphate, a water-soluble synthetic derivative of pancratistatin, is highly effective in a human colon tumor model” (J Nat Prod, 2008) are Activity and IC50 values, retold here.

Calls of active or inactive are those of the source. No cut-off for these calls is given here.

The term IC50 denotes the concentration that gives 50% inhibition.

Assay [1] has as its system HUVEC. In words: Disruption of normal microtubule structure in HUVEC cells at 440 nM. The conditions noted are these: Homo sapiens. Type of assay: functional, cell-based.
The subject of assay [2] is DLD-1. Kind of assay: Antitumor activity in human DLD1 cells xenografted CD1 immunodeficient nude mouse after 24 hrs assessed as decrease in functional vasculature. Set-up: scale not given: the % may be the effect or the level left. On the technique in general: A xenograft is tissue or cells of one species grown in another, often human tumour cells in immunodeficient mice.

Assay [3] concerns DLD-1. In words: Disruption of normal microtubule structure in human DLD1 cells at 440 nM. Format: functional, cell-based.
Assay [4] relates to DLD-1. Kind of assay: Antitumor activity in human DLD1 cell xenografted CD1 immunodeficient nude mouse assessed as mean tumor doubling time. Type of assay: functional.
Assay [5] relates to DLD-1. In words: Antitumor activity in human DLD1 cells xenografted CD1 immunodeficient nude mouse after 24 hrs assessed as increase in tumor necrosis. Format: functional.
The subject of assay [6] is DLD-1. Kind of assay: Antitumor activity in human DLD1 cell xenografted CD1 immunodeficient nude mouse assessed as weight loss. Type of assay: functional.
Assay [7] has as its system HUVEC. Kind of assay: (§1) Disruption of normal microtubule structure in HUVEC cells at 250 uM after 3 hrs. Type of assay: functional, cell-based. The settings on record: Homo sapiens.
Assay [8] relates to HUVEC. In words: Disruption of normal microtubule structure in HUVEC cells at 250 uM after 1 hr. The conditions noted are these: Homo sapiens. Format: functional, cell-based.
The test system of assay [9] is DLD-1. Kind of assay: Antitumor activity against human DLD1 cells after 1 hr by MTT assay. Format: functional, cell-based. The conditions noted are these: DLD-1, 1 h. For orientation: Tetrazolium assays rely on reduction of a dye to a coloured formazan, in cell work by metabolically active cells.
For assay [10], the system named is DLD-1. In words: Cell cycle arrest in human DLD1 cells assessed as accumulation at G2/M phase at 25 uM. Format: functional, cell-based.
For assay [11], the system named is DLD-1. In words: Antitumor activity against human DLD1 cells after 96 hrs. Type of assay: functional, cell-based. The conditions noted are these: DLD-1, 96 h.
Assay [12] has as its system DLD-1. In words: Reduction in mitochondrial membrane potential in human DLD1 cells at 250 uM after 7 hrs assessed as decrease in fluorescence of mitoTracker green FM. Format: functional, cell-based.
The subject of assay [13] is DLD-1. In words: Antitumor activity in human DLD1 cells xenografted CD1 immunodeficient nude mouse at 100 mg/kg after 24 hrs assessed as decrease in functional vasculature. Also noted: scale not given: the % may be the effect or the level left.
Assay [14] relates to DLD-1. Kind of assay: Antitumor activity in human DLD1 cell xenografted CD1 immunodeficient nude mouse at 100 mg/kg, iv assessed as mean tumor doubling time. Type of assay: functional.
Assay [15] deals with DLD-1. In words: Reduction in mitochondrial membrane potential in human DLD1 cells at 250 uM after 4 hrs assessed as decrease in fluorescence of mitoTracker green FM. Type of assay: functional, cell-based.
The test system of assay [16] is DLD-1. Kind of assay: Reduction in mitochondrial membrane potential in human DLD1 cells at 250 uM after 24 hrs assessed as decrease in fluorescence of mitoTracker green FM. Type of assay: functional, cell-based.
The subject of assay [17] is DLD-1. Kind of assay: Antitumor activity in human DLD1 cell xenografted CD1 immunodeficient nude mouse at 100 mg/kg, iv assessed as weight loss. Type of assay: functional.
Assay [18] has as its system HUVEC. Described as §1. The settings on record: Homo sapiens. Type of assay: functional, cell-based. This is another data set of the same source.
Assay [19] concerns DLD-1. In words: Antitumor activity in human DLD1 cells xenografted CD1 immunodeficient nude mouse at 100 mg/kg after 24 hrs assessed as increase in tumor necrosis. Format: functional.

On to `CC(=O)O[C@H]1C(=O)[C@@]2(C)[C@H]([C@H](OC(=O)c3ccccc3)[C@]3(O)C[C@H](OC(=O)[C@H](O)[C@@H](NC(=O)c4ccccc4)c4ccccc4)C(C)=C1C3(C)C)[C@]1(OC(C)=O)CO[C@@H]1C[C@@H]2O` [PACLITAXEL], for which the outcome in the assay on HUVEC [1] and with DLD-1 [3] was Active. In addition, the Activity with DLD-1 [2] stood at 6.5%; in the assay on DLD-1 [4], 6.2 days; with DLD-1 [5], 8.1%; with DLD-1 [6], 0.5%.
Consider `O=C1N[C@H]2[C@@H]3OP(=O)([O-])O[C@@H]3[C@@H](O)[C@H](O)[C@@H]2c2cc3c(c(O)c21)OCO3.[Na+]`, for which the outcome in the assay on HUVEC [7], in the assay on HUVEC [8], in the assay with DLD-1 [10] and in the assay with HUVEC [18] was inactive. The IC50 in the assay on DLD-1 [9] was determined as 253 µM; in the assay on DLD-1 [11], 19.7 µM. The result in the assay with DLD-1 [12], in the assay on DLD-1 [15] and with DLD-1 [16] was Active. Further, the Activity worked out at 0.6% in the assay with DLD-1 [13], 15.1 days with DLD-1 [14], 8.8% in the assay on DLD-1 [17] and 95.3% with DLD-1 [19].
